Patent publication US10988459B2 (priority 2015, dated 2021)
Like-named read-outs stand apart in the source and are kept apart here.

Biological target: human RIP1 kinase domain (2-375) (Homo sapiens (Human), UniProt Q13546)
Experiment: biochemical
Type: biochemical
Conditions: 50 uM ATP
Summary of the method: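 50 nM purified kinase domain from baculovirus-infected insect cells, incubated 2 h with compound in 50 mM Hepes pH 7.5, 30 mM MgCl2, 1 mM DTT, 50 uM ATP, 0.002% Brij-35, 0.5% DMSO. ADP formation read by Transcreener FP at 633 nm excitation. Ki^app fitted with the Morrison tight-binding equation.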

[1] = tight-binding apparent inhibition constant, human RIP1 kinase domain (2-375) 50 nM, 2 hours, read-out: Ki
[2] = Table 5, apparent Ki (Morrison tight-binding fit), 50 nM RIP1 kinase domain, 2 hours incubation, read-out: Ki
[3] = Table 1, apparent Ki (Morrison tight-binding fit), 50 nM RIP1 kinase domain, 2 hours incubation, read-out: RIP1 Ki
[4] = human RIP1 kinase domain (2-375), 2 hours incubation, Transcreener ADP assay, read-out: RIP1 Ki

Sequence of human RIP1 kinase domain (2-375) (Q13546 2-375): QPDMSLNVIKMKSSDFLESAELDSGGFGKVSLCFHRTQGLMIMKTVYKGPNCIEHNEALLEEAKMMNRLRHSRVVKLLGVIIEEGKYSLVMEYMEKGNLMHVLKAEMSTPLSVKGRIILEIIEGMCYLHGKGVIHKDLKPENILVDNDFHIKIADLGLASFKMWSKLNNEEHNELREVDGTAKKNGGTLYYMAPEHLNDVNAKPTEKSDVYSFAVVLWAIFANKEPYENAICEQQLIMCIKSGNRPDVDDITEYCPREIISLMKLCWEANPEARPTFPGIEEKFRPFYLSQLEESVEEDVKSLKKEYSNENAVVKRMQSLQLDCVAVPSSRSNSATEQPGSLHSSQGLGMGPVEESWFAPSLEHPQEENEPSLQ

SMILES	Ki [1] [nM]	other results
Cc1cc2n(n1)CC[C@H](NC(=O)c1ncn(C(C)c3ccc(F)cc3)n1)C(=O)N2C (stereo partly drawn) [Example 270, N—((S)-2,4-dimethyl-5-oxo-5,6,7,8-tetrahydro-4H-pyrazolo[1,5-a][1,3]diazepin-6-yl)-1-(1-(4-fluorophenyl)ethyl)-1H-1,2,4-triazole-3-carboxamide]		Ki (human RIP1 kinase domain (2-375), Transcreener ADP assay, 2 hours incubation, read-out: RIP1 Ki): 88.5 nM
CC(C)[C@@H]1CCc2nc(C(=O)N[C@H]3CCn4nccc4N(C)C3=O)nn21 (single isomer, unassigned) [Example 353]	49.8	
C[C@]1(C(F)(F)F)OCc2cnc(C(=O)N[C@H]3CCc4cc(F)cc(F)c4NC3=O)cc21 [Example 746, (1S)-1-methyl-N-[(3S)-7,9-difluoro-2-oxo-1,3,4,5-tetrahydro-1-benzazepin-3-yl]-1-(trifluoromethyl)-3H-furo[3,4-c]pyridine-6-carboxamide]		Ki [2]: 23 nM
CN1C(=O)[C@@H](NC(=O)c2n[nH]c3c2CC(c2ccccc2)OC3)COc2ccccc21 (stereo partly drawn) [Example 9, N—((S)-5-methyl-4-oxo-2,3,4,5-tetrahydrobenzo[b][1,4]oxazepin-3-yl)-5-phenyl-1,4,5,7-tetrahydropyrano[3,4-c]pyrazole-3-carboxamide]		Ki [3]: 282 nM
CN1C(=O)[C@@H](NC(=O)c2nnc(Cc3ccccc3)[nH]2)CCn2nc3c(c21)CS(=O)(=O)C3 [Example 453, (S)-5-Benzyl-N-(1-methyl-9,9-dioxido-2-oxo-1,2,3,4,5,10-hexahydro-8H-thieno[3′,4′:3,4]pyrazolo[1,5-a][1,3]diazepin-3-yl)-4H-1,2,4-triazole-3-carboxamide]	301	
CN1C(=O)[C@@H](NC(=O)c2ncn(Cc3ccccc3)n2)CCn2nc(CNCC(F)(F)F)cc21 (single isomer, unassigned) [Example 733]		Ki [2]: 68 nM
CN1C(=O)[C@@H](NC(=O)c2ncn(Cc3cccc(F)c3)n2)CCn2nc(C(F)(F)F)cc21 [Example 527]	23	
CN1C(=O)[C@@H](NC(=O)c2ncn(Cc3ccc(F)c(F)c3)n2)CCn2nc(C3CC3)cc21 [Example 223, (S)—N-(2-cyclopropyl-4-methyl-5-oxo-5,6,7,8-tetrahydro-4H-pyrazolo[1,5-a][1,3]diazepin-6-yl)-1-(3,4-difluorobenzyl)-1H-1,2,4-triazole-3-carboxamide]		Ki [4]: 31.9 nM
O=C(N[C@H]1CCc2cc(Cl)ccc2NC1=O)c1n[nH]c2c1CCC2 [Example 49, (S)-N-(7-chloro-2-oxo-2,3,4,5-tetrahydro-1H-benzo[b]azepin-3-yl)-1,4,5,6-tetrahydrocyclopenta[c]pyrazole-3-carboxamide]		Ki [3]: 7600 nM
CN1C(=O)[C@@H](NC(=O)c2ncn(CC3CCCC3)n2)CCn2nc(C3CC3)cc21 [Example 160, (S)-1-(cyclopentylmethyl)-N-(2-cyclopropyl-4-methyl-5-oxo-5,6,7,8-tetrahydro-4H-pyrazolo[1,5-a][1,3]diazepin-6-yl)-1H-1,2,4-triazole-3-carboxamide]		Ki [4]: 24.5 nM

More lines, main results first:

Ki [1] [nM]	SMILES	other results
3700	CCC(C)(O)c1ccnc(C(=O)N[C@H]2COc3ccccc3N(C)C2=O)n1 (stereo partly drawn) [Example 549, 4-(1-hydroxy-1-methyl-propyl)-N-[(3S)-5-methyl-4-oxo-2,3-dihydro-1,5-benzoxazepin-3-yl]pyrimidine-2-carboxamide]	
12	Cc1cc(F)c2c(c1)OC[C@H](NC(=O)c1nc3n(n1)CCO[C@H]3c1ccccc1)C(=O)N2 [Example 642, (8S)-8-phenyl-N-[(3S)-6-fluoro-8-methyl-4-oxo-3,5-dihydro-2H-1,5-benzoxazepin-3-yl]-6,8-dihydro-5H-[1,2,4]triazolo[5,1-c][1,4]oxazine-2-carboxamide]	
61	CN1C(=O)[C@@H](NC(=O)c2ncn(Cc3ncccc3Cl)n2)CCn2nccc21 (racemic) [Example 656, 1-[(3-chloro-2-pyridyl)methyl]-N-[rac-(6S)-4-methyl-5-oxo-7,8-dihydro-6H-pyrazolo[1,5-a][1,3]diazepin-6-yl]-1,2,4-triazole-3-carboxamide]	
28	CN1C(=O)[C@@H](NC(=O)c2ncn(Cc3ccc(F)cc3F)n2)CCn2nc(C(F)(F)F)cc21 [Example 529]	
